Test results reported in US20200030263A1, “METHODS AND COMPOSITIONS FOR PROMOTING WOUND HEALING WITH DECREASED SCAR FORMATION AFTER GLAUCOMA FILTRATION SURGERY” (United States Government as Represented by the Department …, priority 2017, published 2020).

What was measured:
[1] = tested on: rabbit model of glaucoma filtration surgery; test: Rabbit model of glaucoma filtration surgery (GFS): clinical evaluation of bleb, vascularity, IOP and tolerability; assay type: in vivo; details: for bleb appearance (biomicroscopy): day 3, 7, 14 after GFS, compared to flat and scarred blebs in no treatment control; for bleb area compared to untreated controls / bleb length compared to untreated controls: day 3, 7 and 14 after GFS; for bleb area compared to untreated controls: SAHA p<0.05, MMC p<0.01; for bleb length compared to untreated controls: p<0.001; for bleb vascularity score / intraocular pressure: day 7 and day 14 after GFS; for bleb vascularity score: versus no treatment control; for intraocular pressure: versus no-treatment control
Method: (§1) Briefly, a rabbit model of glaucoma filtration surgery (GFS) was used. Rabbits underwent GFS received Balanced Salt Solution (BSS) or SAHA (50 μM) or mitomycin C (MMC; 0.04% (w/v)). Clinical scores of intraocular pressure (TOP), bleb vascularity and slit lamp examination were performed. On postoperative day 14, rabbits were sacrificed and the bleb tissues were collected for evaluation of tissue fibrosis with H&E, Masson trichrome (MT), α-smooth muscle actin (α-SMA), and F-actin staining. Further, SAHA-mediated acetylation of histones in corneal fibroblasts and conjunctiva were determined by western blot analysis.
A 10 mM stock solution of SAHA (Cayman Chemical Company, Ann Arbor, Mich., USA) was prepared by dissolving in dimethyl sulfoxide (DMSO) and then further diluted to 50 μM with balanced salt solution (BSS) eye drops (Alcon). For vehicle control, the same volume of DMSO was diluted with BSS. The 0.04% MMC stock solution was prepared in BSS and 0.02% final dose of MMC was given to rabbits. The rabbits were divided into three treatment groups. Groups I rabbits received 100 μl subconjunctival injection of vehicle 30 minutes before the GFS surgery and group II rabbits received 100 μl subconjunctival injection of 50 μM SAHA solution 30 minutes before GFS. Group III rabbits were injected with 100 μl subconjunctival solution of 0.02% MMC 30 minutes before surgery.
Clinical evaluation was performed to check the intraocular pressure (TOP), general appearance and vascularity of the bleb. All these clinical parameters were recorded before the surgery to obtain the baseline values and on days 3, 5, 7, 10 and 14 after surgery. To measure TOP, tonometry was performed using an applanation tonometer (Tono-pen) with animals under topical anesthesia. Bleb's size was graded by measuring its width and length. Bleb vascularity was graded as 0=avascular; 1=normal vascularity; 2=hyperemic; 3=very hyperemic. Anterior chamber inflammation was assessed by slit lamp examination and graded 0=no inflammation; 1=cells present; 2=fibrin formation; 3=hypopyon present.
(§2) The results are expressed as mean±SEM. The data for bleb length, area, vascularity and IOP were analyzed by two way ANOVA and Bonferroni test using GraphPad Prism 6.0 (GraphPad Software, Inc., La Jolla, Calif.) and p<0.05 was considered to be statistical significant. The immunostaining data was analyzed using a t-test.

[2] = tested on: site of sclerotomy in rabbit eyes after glaucoma filtration surgery; assay type: in vivo; details: for DAPI nuclear staining of conjunctival epithelium at site of sclerostomy: rabbit, in vivo
Method: as §1
On postoperative day 14, rabbits were humanely euthanized with pentobarbital (150 mg/kg) under general anesthesia. The eyes were enucleated together with the conjunctiva to preserve the bleb and snap frozen in optimal cutting temperature fluid. The tissues were sectioned and stained with hematoxylin and eosin. Masson's trichrome staining was performed to stain collagen. Immunofluorescence staining for f-actin (a marker for activated fibroblasts and myofibroblasts) was performed using Alexa Fluor® 594-conjugated phalloidin (1:40 dilution, A12381, Invitrogen Inc., Carlsbad, Calif.). Immunofluorescence staining for α-smooth muscle actin (αSMA), a marker for myofibroblasts, was performed with mouse monoclonal primary αSMA antibody (1:100 dilution, M0851; Dako, Carpinteria, Calif.). Tissue sections were incubated with 2% bovine serum albumin for 30 minutes at room temperature and then with αSMA monoclonal antibody for 90 minutes. For detection of the primary antibody, the sections were exposed to Alexa 488 goat anti-mouse IgG secondary antibody (1:500 dilution, A11001; Invitrogen Inc.) for 1 hour. The tissue sections at the site of sclerotomy and the sections on every sixth tissue slide on the either side of the sclerotomy were stained for f-actin and αSMA. After completion of immunostaining, tissue sections were mounted in medium containing DAPI (Vectashield; Vector Laboratories, Inc. Burlingame, Calif.), viewed, and photographed under a fluorescence microscope (Leica, Deerfield, Ill.) equipped with a digital camera system (SpotCam RT KE; Diagnostic Instruments, Sterling, Mich.). The stained areas in the imaged slides were quantified using Image J software.
as §2

[3] = tested on: corneal haze in rabbits produced with −9.0 diopter PRK; test: Corneal haze after −9.0 diopter PRK in rabbits: efficacy (slit-lamp haze score, αSMA immunofluorescence); assay type: in vivo, rabbit; details: for Haze score: at 4-months after PRK, Fantes scale, single topical SAHA 25 μM 5 min or MMC 0.02% 1 min, BSS 2.7±0.4; for post-PRK corneal haze compared to no-drug treated corneas: single topical application, p<0.001
Source text: Photorefractive keratectomy was used to produce corneal haze in rabbits by performing −9.0 diopter ablation with the Summit Apex excimer laser (Model: SVS APEX Plus ER; Alcon, Ft. Worth, Tex.) as reported previously. Briefly, the rabbits were anesthetized and local anesthesia of the cornea was achieved through the application of topical ophthalmic 0.5% proparacaine hydrochloride (Alcon, Fort Worth, Tex.). A wire lid speculum was placed and corneal epithelium was removed by gentle scraping with surgical Beaver blade #64 (BD Biosciences, Franklin Lakes, N.J.). […] Only one eye of each animal was used for experimentation.
A 10 mM stock solution of SAHA (Cayman Chemical Company, Ann Arbor, Mich., USA) was prepared using dimethyl sulfoxide (DMSO), and diluted to 25 μM with balanced salt solution (BSS) eye drops (Alcon). For vehicle control, the same volume of DMSO was diluted with BSS. […] After PRK, rabbits were divided into 3 groups: Group-1 received a single topical application of SAHA (25 μM) for 5 minutes (n=15), Group-2 received a single topical application of MMC (0.02%) for 1 minute (n=15) and Group-3 received a single topical application of vehicle for 5 minutes (n=15). Thereafter, eyes were washed profusely with BSS. The contralateral eye served as naive control. All rabbits received clinical eye examination.
Rabbits from each group were euthanatized 3-days (n=3), 1-month (n=6), and 4-months (n=6) after PRK. Corneas were snap frozen, sectioned (7 mm), and stored at −80° C. Immunofluorescence was used to detect myofibroblast marker αSMA using monoclonal antibody (M0851; Dako, Calif.). […] Sections were viewed and photographed under a fluorescence microscope (Leica, Deerfield, Ill.) equipped with a digital camera system (SpotCam RT KE; Diagnostic Instruments, MI).

[4] = tested on: rabbit corneal endothelial cells and keratocytes after −9D PRK; test: Rabbit PRK model: in vivo safety (specular microscopy, DAPI, TUNEL)
Method: Briefly, corneal haze in rabbits was produced with −9.0 diopter PRK. A single application of SAHA (25 μM) or MMC (0.02%) was applied topically immediately after PRK. Effects of the two drugs were analyzed by slit-lamp microscope, specular microscope, TUNEL assay, and immunofluorescence.
(§3) A 10 mM stock solution of SAHA (Cayman Chemical Company, Ann Arbor, Mich., USA) was prepared using dimethyl sulfoxide (DMSO), and diluted to 25 μM with balanced salt solution (BSS) eye drops (Alcon). For vehicle control, the same volume of DMSO was diluted with BSS. The 0.02% Mitomycin C solution was prepared at the Harry S. Truman VA Hospital Pharmacy, Columbia, Mo. using 5 mg/ml powder (Accord Healthcare, Inc., Durham, N.C., USA) diluted with sterile normal saline. This solution was stable for 1 week at room temperature but was used within 48 hours after preparation. After PRK, rabbits were divided into 3 groups: Group-1 received a single topical application of SAHA (25 μM) for 5 minutes (n=15), Group-2 received a single topical application of MMC (0.02%) for 1 minute (n=15) and Group-3 received a single topical application of vehicle for 5 minutes (n=15). Thereafter, eyes were washed profusely with BSS. The contralateral eye served as naive control. All rabbits received clinical eye examination.
Slit-lamp (SL15, Kowa, Japan), stereo (MZ16F, Leica, Switzerland) and specular (NSP-8800, Konan, Japan) microscopes were used to evaluate ocular health, corneal haze, and corneal endothelial cells in anesthetized animals. Grading of clinical corneal haze was done using Fantes scale by three researchers (AS, MW and SG) in a masked manner. High performance digital imaging system (VK2; Kowa Tokyo, Japan) was used for corneal image analysis.
Rabbits from each group were euthanatized 3-days (n=3), 1-month (n=6), and 4-months (n=6) after PRK. Corneas were snap frozen, sectioned ([…]), and stored at −80° C. Immunofluorescence was used to detect myofibroblast marker αSMA using monoclonal antibody (M0851; Dako, Calif.). TUNEL assay (ApopTag, 57165; Billerica, Mass.) detected apoptosis and DAPI-stained nuclei determined cellular density. Sections were viewed and photographed under a fluorescence microscope (Leica, Deerfield, Ill.) equipped with a digital camera system (SpotCam RT KE; Diagnostic Instruments, MI).
Stained proteins in corneal sections were quantified using Image J software in six randomly selected areas. Standard error means were calculated. One-way ANOVA and Wilcoxon rank sum test were used for statistical analysis. The p value <0.05 was considered significant.

[5] = Stability of 0.02% Mitomycin C solution; assay type: physicochemical; details: 0.02% solution in sterile normal saline, room temperature
Method: as §3

[6] = tested on: human corneal endothelial cells; details: cited from earlier work
[7] = tested on: acetylation of Histone H3 and H4 in human corneal fibroblast cells; test: Western blot of acetylated histones in human corneal fibroblast cells; assay type: cell-based; details: SAHA 2.5 μM
Method: (§4) Rabbits were received 100 μl subconjunctival injection of 50 μM SAHA. Cell lysates were prepared from human corneal fibroblast cells treated with SAHA (2.5 μM) at 0, 2, 4, 6, 16 and 24 hours. Rabbit conjunctival tissues were harvested at 0, 2, 6 and 24 hour time points. Cell and tissue lysates were analyzed by western blotting using anti-acetyl Histone H3, anti-acetyl histone H4 (Cell Signaling, Beverly, Mass., USA) and (3-actin (Santa Cruz biotechnology Inc., Dallas, Tex., USA) antibodies respectively. All western blots for each protein were used 3 rabbit tissues and repeated at least two times. Digital quantification of western blots was performed using NIH Image J software and Image Studio software Version 5.2

[8] = tested on: acetylation of Histone H3 and H4 in rabbit conjunctiva tissue; test: Western blot of acetylated histones in rabbit conjunctiva after subconjunctival injection; assay type: in vivo; details: 100 μl subconjunctival 50 μM SAHA
Method: as §4

[9] = tested on: cultured corneal fibroblasts; details: 50 μM or higher dose of SAHA; earlier studies; cited from earlier work
[10] = tested on: cultured rabbit, equine, canine and human corneal fibroblasts; details: previous studies from the lab; cited from earlier work
[11] = in vivo; cited from earlier work
[12] = day 14 after GFS, versus no-treatment control
[13] = prophylactic MMC 0.02%, 10-50 seconds, nonrandomized controlled trial

CO[C@@]12[C@H](COC(N)=O)C3=C(C(=O)C(C)=C(N)C3=O)N1C[C@@H]1N[C@@H]12 [MMC, mitomycin C]
bleb appearance (biomicroscopy) [1]: elevated blebs but these blebs had a thin, avascular and cystic appearance | bleb area compared to untreated controls [1]: significantly higher | bleb length compared to untreated controls [1]: significantly higher | bleb vascularity score [1]: very robust decrease | intraocular pressure [1]: lower TOP compared to the no-treatment control eyes but the results were not statistically significant | bleb vascularity by day 14 ([1]; day 14 after GFS): completely avascular | ocular adverse findings on clinical evaluation ([1]; rabbit eyes after GFS, SAHA 50 μM or MMC 0.02% subconjunctival): corneal neovascularization and opacity | f-actin stained area (activated fibroblasts and myofibroblasts) [2, 12]: very robust decrease | αSMA stained area (myofibroblasts) [2, 12]: very robust decrease | DAPI nuclear staining of conjunctival epithelium at site of sclerostomy [2]: discontinuous and highly sparse DAPI nuclear staining | Haze score [3]: 0.85±0.15 | post-PRK corneal haze compared to no-drug treated corneas [3]: significantly decreased | corneal endothelial cell phenotype and density ([4]; 1-month after PRK): significantly compromised endothelial cell phenotype and density | apoptosis (TUNEL+ cells in stroma and endothelium) ([4]; 1-month and 4-months): many TUNEL+ cells in the stroma and endothelium | keratocyte number and density in stroma (DAPI-staining) ([4]; 1-month and 4-months post-PRK): significant keratocyte loss | corneal endothelial cell phenotype and density ([4]; 4-months after PRK): still had compromised endothelial cells | apoptosis (TUNEL assay) ([4]; corneas collected at 3-days): significant apoptosis in epithelial and keratocyte cells | stability of solution [5]: 1 week | qualitative morphometric parameters or quantitative endothelial cell density ([6]; 0.02% MMC topically for 12 seconds and 40 seconds following PRK, other studies): did not have a significant effect | corneal endothelial cells [6, 13]: significant loss of corneal endothelial cells | haze formation after PRK [6, 13]: inhibited haze formation

O=C(CCCCCCC(=O)Nc1ccccc1)NO [SAHA, suberoylanilide hydroxamic acid]
bleb appearance (biomicroscopy) [1]: transparent and elevated blebs | bleb area compared to untreated controls [1]: significantly higher | bleb length compared to untreated controls [1]: significantly higher | bleb vascularity score [1]: significantly (p<0.01) attenuated | intraocular pressure [1]: lower TOP compared to the no-treatment control eyes but the results were not statistically significant | Masson trichrome staining: collagen deposits at site of sclerotomy [2, 12]: less collagen deposits | f-actin stained area (activated fibroblasts and myofibroblasts) [2, 12]: significant decrease | αSMA stained area (myofibroblasts) [2, 12]: significant decrease | H&E staining: fibrous deposit at site of sclerotomy ([2]; day 14 after GFS, control densely packed with fibrous tissue): mild fibrous deposit and a loosely arranged conjunctival tissue | DAPI nuclear staining of conjunctival epithelium at site of sclerostomy [2]: continuous and uniform conjunctival epithelium | time of maximum histone H3 and H4 acetylation [7]: 6 h | acetylation status of histone H3 and H4 ([7]; 0, 2, 4, 6, 16 and 24 hours): increase the acetylation status of histone H3 and H4 | time of maximum histone H3 and H4 acetylation [8]: 6 h | acetylation status of histone H3 and H4 ([8]; 0, 2, 6 and 24 hour): increase the acetylation status of histone H3 and H4 | Haze score [3]: 0.9±0.1 | post-PRK corneal haze compared to no-drug treated corneas [3]: significantly decreased | apoptosis (TUNEL assay) ([4]; rabbit, in vivo): did not induce apoptosis in any cell type | keratocyte number and density in stroma (DAPI-staining) ([4]; rabbit, in vivo): did not reduce number or density of keratocytes | cellular viability of cultured corneal fibroblasts [9]: did not decrease cellular viability | differentiation of corneal fibroblasts to myofibroblasts [10]: capable of inhibiting differentiation | plasma half-life [11]: short
